According to patent publication US20060079555A1, “Diarylmethylidene piperidine derivatives, preparations thereof and uses thereof” (AstraZeneca AB, priority 2003, published 2006):

Target: T1, human δ receptor (Homo sapiens, UniProt P41143)
T1 construct: expressed in transfected cells
Experiment: GTP[γ]35S binding functional assay, human δ receptor
Type: biochemical
Conditions: Emax in relation to the standard δ agonist SNC80
Protocol: The agonist activity of the compounds is measured by determining the degree to which the compounds receptor complex activates the binding of GTP to G-proteins to which the receptors are coupled. In the GTP binding assay, GTP[γ]^35S is combined with test compounds and membranes from HEK-293S cells expressing the cloned human opioid receptors or from homogenised rat and mouse brain. Agonists stimulate GTP[γ]^35S binding in these membranes. The EC50 and Emax values of compounds are determined from dose-response curves. Right shifts of the dose response curve by the delta antagonist naltrindole are performed to verify that agonist activity is mediated through delta receptors. The Emax values were determined in relation to the standard δ agonist SNC80, i.e., higher than 100% is a compound that have better efficacy than SNC80.

T1 sequence (P41143 whole entry): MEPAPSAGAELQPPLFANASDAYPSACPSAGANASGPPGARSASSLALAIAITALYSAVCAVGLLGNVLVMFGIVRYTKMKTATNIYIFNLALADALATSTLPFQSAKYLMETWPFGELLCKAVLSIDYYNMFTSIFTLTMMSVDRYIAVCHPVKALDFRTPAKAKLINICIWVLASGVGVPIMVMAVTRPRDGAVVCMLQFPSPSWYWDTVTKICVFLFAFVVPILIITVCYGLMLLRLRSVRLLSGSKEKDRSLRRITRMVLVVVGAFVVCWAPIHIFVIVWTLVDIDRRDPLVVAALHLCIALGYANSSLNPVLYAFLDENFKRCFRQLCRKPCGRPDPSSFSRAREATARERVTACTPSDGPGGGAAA

Structure (SMILES): CCN(CC)C(=O)c1ccc(C(=C2CCNCC2)c2cccc(C(=O)NCC(C)C)c2)cc1 [Compound 12, 4-[{3-[(isobutylamino)carbonyl]phenyl}(piperidin-4-ylidene)methyl]-N,N-diethylbenzamide]
- Emax: 69 to 105%

Structure (SMILES): CCN(CC)C(=O)c1ccc(C(=C2CCNCC2)c2cccc(C(=O)NCc3ccccc3)c2)cc1 [Compound 2, 4-[{3-[(benzylamino)carbonyl]phenyl}(piperidin-4-ylidene)methyl]-N,N-diethylbenzamide]
- Emax: 69 to 105%

Structure (SMILES): CCN(CC)C(=O)c1ccc(C(=C2CCNCC2)c2cccc(C(=O)NC3CCCC3)c2)cc1 [Compound 4, 4-[{3-[(cyclopentlamino)carbonyl]phenyl}(piperidin-4-ylidene)methyl]-N,N-diethylbenzamide]
- Emax: 69 to 105%

Structure (SMILES): CCN(CC)C(=O)c1ccc(C(=C2CCNCC2)c2cccc(C(=O)NC3CCCCC3)c2)cc1 [Compound 5]
- Emax: 69 to 105%

Structure (SMILES): CCC(CC)NC(=O)c1cccc(C(=C2CCNCC2)c2ccc(C(=O)N(CC)CC)cc2)c1 [Compound 13, 4-[(3{[(1-ethylpropyl)amino]carbonyl}phenyl)(piperidin-4-ylidene)methyl]-N,N-diethylbenzamide]
- Emax: 69 to 105%

Structure (SMILES): CCN(CC)C(=O)c1ccc(C(=C2CCNCC2)c2cccc(C(=O)Nc3nc(C)cs3)c2)cc1 [Compound 10, 4-[(3-{[(4-methyl-1,3-thiazol-2-yl)amino]carbonyl}phenyl)(piperidin-4-ylidene)methyl]-N,N-diethylbenzamide]
- Emax: 69 to 105%

Structure (SMILES): CCN(CC)C(=O)c1ccc(C(=C2CCNCC2)c2cccc(C(=O)N(C)CCc3ccccc3)c2)cc1 [Compound 14, 4-[(3-{[methyl(2-phenylethyl)amino]carbonyl}phenyl)(piperidin-4-ylidene)methyl]-N,N-diethylbenzamide]
- Emax: 69 to 105%

Structure (SMILES): CCN(CC)C(=O)c1ccc(C(=C2CCNCC2)c2cccc(C(=O)N3CCCC3)c2)cc1 [Compound 16, N,N-diethyl-4-{piperidin-4-ylidene[3-(pyrrolidin-1-ylcarbonyl)phenyl]methyl}benzamide]
- Emax: 69 to 105%

Structure (SMILES): CCN(CC)C(=O)c1ccc(C(=C2CCNCC2)c2cccc(C(=O)Nc3ccccc3)c2)cc1 [Compound 1, 4-[[3-(anilinocarbonyl)phenyl](piperidin-4-ylidene)methyl]-N,N-diethylbenzamide]
- Emax: 69 to 105%

Structure (SMILES): CCN(CC)C(=O)c1ccc(C(=C2CCNCC2)c2cccc(C(=O)NCc3ccccc3F)c2)cc1 [Compound 8, 4-[(3-{[(2-fluorobenzyl)amino]carbonyl}phenyl)(piperidin-4-ylidene)methyl]-N,N-diethylbenzamide]
- Emax: 69 to 105%

Structure (SMILES): CCN(CC)C(=O)c1ccc(C(=C2CCNCC2)c2cccc(C(=O)N3CCCCC3)c2)cc1 [Compound 15]
- Emax: 69 to 105%

Structure (SMILES): CCN(CC)C(=O)c1ccc(C(=C2CCNCC2)c2cccc(C(=O)N[C@H](C)c3ccc(C)cc3)c2)cc1 [Compound 9, 4-[[3-({[(1R)1-(4-methylphenyl)ethyl]amino}carbonyl)phenyl](piperidin-4-ylidene)methyl]-N,N-diethylbenzamide]
- Emax: 69 to 105%

Structure (SMILES): CCN(CC)C(=O)c1ccc(C(=C2CCNCC2)c2cccc(C(=O)NCc3ccccc3Cl)c2)cc1 [Compound 7, 4-[(3-{[(2-chlorobenzyl)amino]carbonyl}phenyl)(piperidin-4-ylidene)methyl]-N,N-diethylbenzamide]
- Emax: 69 to 105%

Structure (SMILES): CCN(CC)C(=O)c1ccc(C(=C2CCNCC2)c2cccc(C(=O)NCCc3ccccc3)c2)cc1 [Compound 3, 4-[(3-{[(2-phenylethyl)amino]carbonyl}phenyl)(piperidin-4-ylidene)methyl]-N,N-diethylbenzamide]
- Emax: 69 to 105%

Structure (SMILES): CCN(CC)C(=O)c1ccc(C(=C2CCNCC2)c2cccc(C(=O)Nc3ccc(C)nc3C)c2)cc1 [Compound 11]
- Emax: 69 to 105%

Structure (SMILES): CCN(CC)C(=O)c1ccc(C(=C2CCNCC2)c2cccc(C(=O)NCC3CCCCC3)c2)cc1 [Compound 6]
- Emax: 69 to 105%
